From ChEMBL document CHEMBL5244253, “Recent research progress on natural small molecule bibenzyls and its derivatives in Dendrobium species” (Eur J Med Chem, 2020) come the findings set out here.

Holding throughout (type): functional
A short description of experiment [1]: Antioxidant activity assessed as DPPH radical scavenging activity incubated for 30 mins by spectrophotometric analysis. (In general: DPPH is a stable violet radical that fades when it is reduced.)
Experiment [2] concerns PC-12. Description: Neuroprotection against Amyloid beta (25 to 35)-induced toxicity in rat PC-12 cells assessed as increase in cell viability at 50 uM for 24 hrs by MTT assay relative to control.
Experiment [3] relates to PC-12. Description: Neuroprotection against Amyloid beta (25 to 35)-induced toxicity in rat PC-12 cells assessed as increase in cell viability at 10 uM for 24 hrs by MTT assay relative to control.
Experiment [4] concerns PC-12. Description: Neuroprotection against Amyloid beta (25 to 35)-induced toxicity in rat PC-12 cells assessed as increase in cell viability at 25 uM for 24 hrs by MTT assay relative to control. On the technique in general: Tetrazolium dyes change colour on reduction, which living cells bring about.

As a reminder, the IC50 is the concentration at which inhibition is half-maximal. `COc1ccc(CCc2cc(OC)c(O)c3c2C(Cc2ccc(O)cc2)c2cc(O)c(O)c(OC)c2O3)cc1` (configuration not stated): the IC50 in experiment [1] amounted to 32.4 µM.
Consider `CCCC(=O)Oc1c(OC)cc(CCc2ccc(OC)c(OC)c2)cc1OC`, for which the Activity stood at 49.37% in experiment [2], 54.89% in experiment [3] and 50.12% in experiment [4].
In the case of `COc1ccc(CCc2cc(OC)c(OC(=O)c3ccncc3)c(OC)c2)cc1OC`, the Activity in experiment [2] was determined as 46.56%; in experiment [3], 53.53%; in experiment [4], 50.71%.
Consider `CCCCOc1c(OC)cc(CCc2ccc(OC)c(OC)c2)cc1OC`, for which the Activity in experiment [2] worked out at 53.44%; in experiment [3], 51.79%; in experiment [4], 52.03%.
Turning to `CCCOc1c(OC)cc(CCc2ccc(OC)c(OC)c2)cc1OC`, the Activity is 48.81% in experiment [2], 49.21% in experiment [3] and 49.11% in experiment [4].
Regarding `CCO[C@@H](Cc1ccc(O)cc1)c1cc(O)c(O)c(OC)c1`, the IC50 in experiment [1] amounted to 34.5 µM.
With `CCCC(CCC)C(=O)Oc1c(OC)cc(CCc2ccc(OC)c(OC)c2)cc1OC`, the Activity in experiment [2] worked out at 60.02%; in experiment [3] it was 50.11%; in experiment [4] it was 55.21%.
In the same order, the values of `CCCCC(=O)Oc1c(OC)cc(CCc2ccc(OC)c(OC)c2)cc1OC` are 48.63%, 49.73% and 41.9%.
On to `O=C1O[C@H]([C@@H](O)CO)C(O)=C1O` [ASCORBIC ACID], for which the IC50 in experiment [1] was determined as 23.2 µM.
Consider `COc1cc([C@H](Cc2ccc(O)cc2)OC)cc(O)c1O`, for which, in experiment [1], the half-inhibitory concentration (IC50) came out at 34.2 µM.
With `CCC(C)Oc1c(OC)cc(CCc2ccc(OC)c(OC)c2)cc1OC` (configuration not stated), the Activity in experiment [2] came to 48.75%; in experiment [3], 49.02%; in experiment [4], 49.73%.
In the case of `COc1ccc(CCc2cc(OC)c(OC(=O)C(C)C)c(OC)c2)cc1OC`, the Activity worked out at 45.91% in experiment [2], 49.34% in experiment [3] and 47.33% in experiment [4].
On to `CCC(=O)Oc1c(OC)cc(CCc2ccc(OC)c(OC)c2)cc1OC`, for which the figures for the Activity in experiment [2], in experiment [3] and in experiment [4] were 44.4%, 45.31% and 44.21%, respectively.
On the same counts, the results for `CCOc1c(OC)cc(CCc2ccc(OC)c(OC)c2)cc1OC` are 46.15%, 53.84% and 50.92%.
As for `COc1ccc(CCc2cc(OC)c(OCCC(C)C)c(OC)c2)cc1OC`, the Activity in experiment [2] is recorded as 49.48%; in experiment [3], 50.21%; in experiment [4], 50.16%.
For `CCCCC(CC)Oc1c(OC)cc(CCc2ccc(OC)c(OC)c2)cc1OC` (configuration not stated), the Activity in experiment [2] is on record as 58.88%; in experiment [3], 51.03%; in experiment [4], 54.78%.
For `COc1cccc(CCc2cc(O)c(O)c(OC)c2)c1`, in experiment [1], the IC50 was 40.3 µM.
Take `COc1cc(CC(O)c2cc(OC)c(O)c(OC)c2)ccc1O` (configuration not stated) [NOBILIN D]: in experiment [1], the IC50 was found to be 19.9 µM.
In the case of `COc1ccc(CCc2cc(OC)c(OCC(C)C)c(OC)c2)cc1OC`, the Activity came to 49.89% in experiment [2], 54.53% in experiment [3] and 50.12% in experiment [4].
Take `COc1ccc(CCc2cc(OC)c(OC(=O)CCC(C)C)c(OC)c2)cc1OC`: the Activity is recorded as 49.57% in experiment [2], 49.83% in experiment [3] and 50.4% in experiment [4].
For the molecule `COc1ccc(CCc2cc(OC)c(OC(=O)c3ccccn3)c(OC)c2)cc1OC`, the Activity is given as 54.6% in experiment [2], 52.97% in experiment [3] and 50.1% in experiment [4].
In the same order, the values of `CCCCC(C)Oc1c(OC)cc(CCc2ccc(OC)c(OC)c2)cc1OC` (configuration not stated) are 52.18%, 50.67% and 50.25%.
Consider `COc1ccc(CCc2cc(OC)c(OC(=O)CCc3ccccc3)c(OC)c2)cc1OC`, for which the results for the Activity in experiment [2], in experiment [3] and in experiment [4] were 49.84%, 54% and 50.22%, respectively.
